Laboratory results from PubChem BioAssay AID2060341 (Molecular Pharmacology Branch, DTP, NCI, 2025).

Test system: 327498-153-R-J2-PDC multicell spheroid viability
Test: Anticancer human tumor 327498-153-R-J2-PDC patient-derived uterine carcinosarcoma cell line growth inhibition [IpAb]
Settings: for IC50: curve of first compound; for viability, T/C: stronger effect = lower value
Excerpt: Combinatorial screen of targeted agents with ipatasertib and abemaciclib in multi-cell type tumor spheroids
A high-throughput screen of multi-cell type tumor spheroids was designed to identify active combinations of targeted small molecules and ipatasertib or abemaciclib. Complex spheroids include a stromal component modeled by human endothelial cells (HUVEC) and fibroblasts modeled by human mesenchymal stem cells (MSCs). The concentration ranges selected for each drug and investigational agent were based upon clinically achievable concentrations if the clinical Cmax of the agent was known.
Compounds. The drugs and investigational agents: ipatasertib (NSC767898), abemaciclib(NSC768073), selumetinib (NSC741078), trametinib (758246), adavosertib (NSC754352), everolimus (NSC733504), sapanisertib (NSC764658), vemurafenib (NSC761431), venetoclax (NSC766270), copanlisib (NSC809693), apelisib (NSC765974), palbociblib (NSC758247), vemurafenib (NSC761431), dabrafenib (NSC764134), ravoxertinib (NSC781343), BMS-387032 (NSC767048), sotorasib (NSC818433), talazoparib (NSC767125) and afursertib (NSC778305), were obtained from the National Cancer Institute (NCI) Developmental Therapeutics Program Chemical Repository. The FDA-approved anticancer drug set is available from the NCI Developmental Therapeutics Program. […] The stock solutions were prepared in dimethyl sulfoxide (DMSO, Sigma-Aldrich, St. Louis, MO, cat. D2650) at 800-fold the tested concentration and stored at -70 degrees C prior to their use. All drugs and investigational agents were tested over a range starting from a high concentration at or near the clinical Cmax and decreasing in half-log increments. If the clinical Cmax for an agent had not been determined, the highest concentration tested was 10 microM.
NCI60 Cell Culture. NCI60 cell lines were obtained from the NCI Developmental Therapeutics Program Tumor Repository. For each lot of cells, the Repository performed Applied Biosystems AmpFLSTR Identifiler testing with PCR amplification to confirm consistency with the published Identifier STR profile for each cell line. Cells were kept in continuous culture for no more than 20 passages. The optimal seeding densities for each of the cell lines at each time point assessed were determined prior to performing the concentration response studies. Briefly, the NCI60 human tumor lines were grown as monolayers in RPMI 1640 medium supplemented with 10% FBS and 2 mmol/L L-glutamine.
An additional 9 lines were from the NCI60 cell line panel including MDA-MB-231 breast carcinoma, MDA-MB-468 breast carcinoma, MCF7 breast carcinoma, Hs578T breast carcinoma, MALME-3M melanoma, SK-MEL-2 melanoma, SK-OV-3 ovarian carcinoma, DU-145 prostate carcinoma, PC-3 prostate carcinoma, all cell lines along with major genetic alterations are listed on Table 2. Pooled donor human umbilical vein endothelial cells (HUVEC, Lonza, cat. CC-2519) and human mesenchymal stem cells (hMSC, Lonza, cat. PT-2501) were purchased from Lonza (Walkersville, MD).
PDMR cell lines were grown in complete medium (DC medium): Dulbecco's modified Eagle's medium (DMEM)/F12 supplemented with 5% fetal bovine serum (FBS), 2 mM L-glutamine, 100 U/mL penicillin and 100 µg/ml streptomycin, 0.4 µg/ml hydrocortisone, 10 ng/ml epidermal growth factor (EGF) recombinant human protein, 24 µg/mL adenine, and 0.1 mg/mL primocin. During culture from frozen stock vials, PDMR cells were cultured in the same medium containing 10 µM Y-27632 (see Table 3). The PDCs were cultured in complete DMEM/F12 media without 10 microM Y-27632 dihydrochloride for at least two passages prior to the screen. The pooled donor HUVEC and hMSC were cultured in endothelial cell growth medium 2 (PromoCell, Heidelberg, Germany, cat. C-22011) and mesenchymal stem cell growth medium 2 (PromoCell, cat. C-28009), respectively. For all experiments, HUVEC and hMSC were used at passages </=5.
[…]
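Also: spheroids exposed to agents for 7 days.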
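For viability, T/C in this document: 100% = DMSO vehicle control viability.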

## CC(=O)c1c(C)c2cnc(Nc3ccc(N4CCNCC4)cn3)nc2n(C2CCCC2)c1=O + CCN1CCN(Cc2ccc(Nc3ncc(F)c(-c4cc(F)c5nc(C)n(C(C)C)c5c4)n3)nc2)CC1
Second compound 0.01 µM
  IC50: > 0.3 µM
Second compound 0.0316 µM
  IC50: > 0.3 µM
Second compound 0.1 µM
  IC50: > 0.3 µM
Second compound 0.316 µM
  IC50: > 0.3 µM
Second compound 1 µM
  IC50: > 0.3 µM
Second compound 0.01 µM, first compound 0.000949 µM
  viability, T/C: 91.3%
Second compound 0.01 µM, first compound 0.003 µM
  viability, T/C: 88.8%
Second compound 0.01 µM, first compound 0.00949 µM
  viability, T/C: 91%
Second compound 0.01 µM, first compound 0.03 µM
  viability, T/C: 82.3%
Second compound 0.01 µM, first compound 0.0949 µM
  viability, T/C: 70.7%
Second compound 0.01 µM, first compound 0.3 µM
  viability, T/C: 59.1%
Second compound 0.0316 µM, first compound 0.000949 µM
  viability, T/C: 77.1%
Second compound 0.0316 µM, first compound 0.003 µM
  viability, T/C: 74.8%
Second compound 0.0316 µM, first compound 0.00949 µM
  viability, T/C: 72.8%
Second compound 0.0316 µM, first compound 0.03 µM
  viability, T/C: 65%
Second compound 0.0316 µM, first compound 0.0949 µM
  viability, T/C: 59.9%
Second compound 0.0316 µM, first compound 0.3 µM
  viability, T/C: 54.8%
Second compound 0.1 µM, first compound 0.000949 µM
  viability, T/C: 66.2%
Second compound 0.1 µM, first compound 0.003 µM
  viability, T/C: 61%
Second compound 0.1 µM, first compound 0.00949 µM
  viability, T/C: 67.3%
Second compound 0.1 µM, first compound 0.03 µM
  viability, T/C: 56.9%
Second compound 0.1 µM, first compound 0.0949 µM
  viability, T/C: 59.9%
Second compound 0.1 µM, first compound 0.3 µM
  viability, T/C: 57.1%
Second compound 0.316 µM, first compound 0.000949 µM
  viability, T/C: 58.3%
Second compound 0.316 µM, first compound 0.003 µM
  viability, T/C: 58.2%
Second compound 0.316 µM, first compound 0.00949 µM
  viability, T/C: 62%
Second compound 0.316 µM, first compound 0.03 µM
  viability, T/C: 54.6%
Second compound 0.316 µM, first compound 0.0949 µM
  viability, T/C: 56.4%
Second compound 0.316 µM, first compound 0.3 µM
  viability, T/C: 60.6%
Second compound 1 µM, first compound 0.000949 µM
  viability, T/C: 55.5%
Second compound 1 µM, first compound 0.003 µM
  viability, T/C: 57.9%
Second compound 1 µM, first compound 0.00949 µM
  viability, T/C: 62%
Second compound 1 µM, first compound 0.03 µM
  viability, T/C: 54.1%
Second compound 1 µM, first compound 0.0949 µM
  viability, T/C: 57.6%
Second compound 1 µM, first compound 0.3 µM
  viability, T/C: 56.2%

## Cn1ncnc1[C@H]1c2n[nH]c(=O)c3cc(F)cc(c23)N[C@@H]1c1ccc(F)cc1 + CCN1CCN(Cc2ccc(Nc3ncc(F)c(-c4cc(F)c5nc(C)n(C(C)C)c5c4)n3)nc2)CC1
Second compound 0.01 µM
  IC50: 0.0186 µM
Second compound 0.0316 µM
  IC50: 0.0121 µM
Second compound 0.1 µM
  IC50: 0.00576 µM
Second compound 0.316 µM
  IC50: 0.00284 µM
Second compound 1 µM
  IC50: 0.00384 µM
Second compound 0.01 µM, first compound 0.000316 µM
  viability, T/C: 96%
Second compound 0.01 µM, first compound 0.001 µM
  viability, T/C: 87.3%
Second compound 0.01 µM, first compound 0.00316 µM
  viability, T/C: 85.3%
Second compound 0.01 µM, first compound 0.01 µM
  viability, T/C: 58.1%
Second compound 0.01 µM, first compound 0.0316 µM
  viability, T/C: 42.3%
Second compound 0.01 µM, first compound 0.1 µM
  viability, T/C: 25.2%
Second compound 0.0316 µM, first compound 0.000316 µM
  viability, T/C: 74.8%
Second compound 0.0316 µM, first compound 0.001 µM
  viability, T/C: 70%
Second compound 0.0316 µM, first compound 0.00316 µM
  viability, T/C: 63.3%
Second compound 0.0316 µM, first compound 0.01 µM
  viability, T/C: 50.3%
Second compound 0.0316 µM, first compound 0.0316 µM
  viability, T/C: 41.2%
Second compound 0.0316 µM, first compound 0.1 µM
  viability, T/C: 28.2%
Second compound 0.1 µM, first compound 0.000316 µM
  viability, T/C: 68.3%
Second compound 0.1 µM, first compound 0.001 µM
  viability, T/C: 56.6%
Second compound 0.1 µM, first compound 0.00316 µM
  viability, T/C: 54.7%
Second compound 0.1 µM, first compound 0.01 µM
  viability, T/C: 47.2%
Second compound 0.1 µM, first compound 0.0316 µM
  viability, T/C: 39.6%
Second compound 0.1 µM, first compound 0.1 µM
  viability, T/C: 28.9%
Second compound 0.316 µM, first compound 0.000316 µM
  viability, T/C: 59%
Second compound 0.316 µM, first compound 0.001 µM
  viability, T/C: 54%
Second compound 0.316 µM, first compound 0.00316 µM
  viability, T/C: 49.3%
Second compound 0.316 µM, first compound 0.01 µM
  viability, T/C: 44.8%
Second compound 0.316 µM, first compound 0.0316 µM
  viability, T/C: 38.2%
Second compound 0.316 µM, first compound 0.1 µM
  viability, T/C: 32.5%
Second compound 1 µM, first compound 0.000316 µM
  viability, T/C: 62.2%
Second compound 1 µM, first compound 0.001 µM
  viability, T/C: 53.9%
Second compound 1 µM, first compound 0.00316 µM
  viability, T/C: 51.4%
Second compound 1 µM, first compound 0.01 µM
  viability, T/C: 45.1%
Second compound 1 µM, first compound 0.0316 µM
  viability, T/C: 40.8%
Second compound 1 µM, first compound 0.1 µM
  viability, T/C: 31.6%
